Converted amounts (≈) assume the structure as drawn. Each block holds one molecule with its values, some of them ahead of it.
What was measured:
MGC-803 [1] = test: Antiproliferative activity against human MGC803 cells assessed as reduction in cell viability after 72 hrs by MTT assay; format: functional, cell-based; conditions: MGC-803, 72 h
SGC-7901 = test: Antiproliferative activity against human SGC7901 cells assessed as reduction in cell viability after 72 hrs by MTT assay; format: functional, cell-based; conditions: SGC-7901, 72 h
Tubulin = test: Inhibition of tubulin polymerization (unknown origin); format: protein-complex assay, Homo sapiens
MGC-803 [2] = test: Antitumour activity against human MGC803 cells xenografted in BALB/c nude mice assessed as inhibition of tumour growth at 60 mg/kg, ig administered for 21 days relative to control; format: functional; conditions: Mus musculus, MGC-803, po, 504 h; read-out: TGI
BGC-823 = test: Antiproliferative activity against human BGC823 cells assessed as reduction in cell viability after 72 hrs by MTT assay; format: functional, cell-based; conditions: BGC-823, 72 h
HeLa [3] = test: Potency index, ratio of podophyllotoxin IC50 to test compound IC50 for antiproliferative activity against human HeLa cells; format: functional
MCF7 [4] = test: Potency index, ratio of podophyllotoxin IC50 to test compound IC50 for antiproliferative activity against human MCF7 cells; format: functional
MCF7 [5] = test: cells; format: functional, cell-based; conditions: Homo sapiens
Description: Antiproliferative activity against human MCF7 cells by MTT assay

DU-145 [6] = test: Potency index, ratio of podophyllotoxin IC50 to test compound IC50 for antiproliferative activity against human DU145 cells; format: functional
A549 [7] = test: cells; format: functional, cell-based; conditions: Homo sapiens
Description: Antiproliferative activity against human A549 cells by MTT assay

A549 [8] = test: Potency index, ratio of podophyllotoxin IC50 to test compound IC50 for antiproliferative activity against human A549 cells; format: functional
HepG2 [9] = test: Potency index, ratio of podophyllotoxin IC50 to test compound IC50 for antiproliferative activity against human HepG2 cells; format: functional
DU-145 [10] = test: Antiproliferative activity against human DU145 cells by MTT assay; format: functional, cell-based
NIH3T3 = test: Antiproliferative activity against mouse NIH/3T3 cells by MTT assay; format: functional, cell-based
HepG2 [11] = test: Antiproliferative activity against human HepG2 cells by MTT assay; format: functional, cell-based
HeLa [12] = test: Antiproliferative activity against human HeLa cells by MTT assay; format: functional, cell-based
U-251 = test: Antiproliferative activity against human U251 cells by MTT assay; format: functional, cell-based
LNCaP = test: Antiproliferative activity against human LNCAP cells by MTT assay; format: functional, cell-based
K562 = test: Antiproliferative activity against human K562 cells by MTT assay; format: functional, cell-based
[13] = Antiproliferative activity against human SMCC7721 cells by MTT assay; format: functional, cell-based
HFF = test: Antiproliferative activity against human HFF cells by MTT assay; format: cell-based
HCT-116 = test: Antiproliferative activity against human HCT116 cells by MTT assay; format: functional, cell-based
SK-BR-3 = test: Antiproliferative activity against human SKBR3 cells by MTT assay; format: functional, cell-based
K562/Adr = test: Antiproliferative activity against human K562/ADR cells by MTT assay; format: functional, cell-based
PC-3 = test: Antiproliferative activity against human PC3 cells by MTT assay; format: functional, cell-based
L02 = test: Antiproliferative activity against human HL7702 cells by MTT assay; format: cell-based
HepG2 [14] = test: Potency index, ratio of etoposide IC50 to test compound IC50 for antiproliferative activity against human HepG2 cells by SRB assay; format: functional; conditions: pooled result: one value given for 7 cell lines, strains, targets or settings
HepG2 [15] = test: Antiproliferative activity against human HepG2 cells by SRB assay; format: functional, cell-based
MCF7 [16] = test: Antiproliferative activity against human MCF7 cells by SRB assay; format: functional, cell-based
SK-OV-3 = test: Antiproliferative activity against human SKOV3 cells by SRB assay; format: functional, cell-based
A549 [17] = test: Antiproliferative activity against human A549 cells by SRB assay; format: functional, cell-based
HeLa [18] = test: Antiproliferative activity against human HeLa cells by SRB assay; format: functional, cell-based
MCF7-DOX = test: Antiproliferative activity against human MCF7/Dox cells by SRB assay; format: functional, cell-based
DU-145 [19] = test: Antiproliferative activity against human DU145 cells by SRB assay; format: functional, cell-based
SW480 [20] = test: Potency index, ratio of cisplatin IC50 to test compound IC50 for antiproliferative activity against human SW480 cells; format: functional
MCF7 [21] = test: Potency index, ratio of etoposide IC50 to test compound IC50 for antiproliferative activity against human MCF7 cells; format: functional
SW480 [22] = test: Antiproliferative activity against human SW480 cells assessed as reduction in cell viability after 48 hrs by MTT assay; format: functional, cell-based; conditions: SW480, 48 h
SW480 [23] = test: Potency index, ratio of etoposide IC50 to test compound IC50 for antiproliferative activity against human SW480 cells; format: functional
[24] = Potency index, ratio of cisplatin IC50 to test compound IC50 for antiproliferative activity against human […] cells; format: functional
HL-60 = test: Antiproliferative activity against human HL60 cells assessed as reduction in cell viability after 48 hrs by MTT assay; format: functional, cell-based; conditions: HL-60, 48 h
[25] = Potency index, ratio of etoposide IC50 to test compound IC50 for antiproliferative activity against human […] cells; format: functional
MCF7 [26] = test: Potency index, ratio of cisplatin IC50 to test compound IC50 for antiproliferative activity against human MCF7 cells; format: functional
A549 [27] = test: Potency index, ratio of cisplatin IC50 to test compound IC50 for antiproliferative activity against human A549 cells; format: functional
A549 [28] = test: Antiproliferative activity against human A549 cells assessed as reduction in cell viability after 48 hrs by MTT assay; format: functional, cell-based; conditions: A549, 48 h
A549 [29] = test: Potency index, ratio of etoposide IC50 to test compound IC50 for antiproliferative activity against human A549 cells; format: functional
[30] = Antiproliferative activity against human SMCC7721 cells assessed as reduction in cell viability after 48 hrs by MTT assay; format: functional, cell-based
MDA-MB-231 [31] = test: Antiproliferative activity against human MDA-MB-231 cells assessed as reduction in cell viability after 72 hrs by MTT assay; format: functional, cell-based; conditions: MDA-MB-231, 72 h, read-out: IC50
MCF7 [32] = test: Potency index, ratio of 5-fluorouracil IC50 to test compound IC50 for antiproliferative activity against human MCF7 cells; format: functional
MDA-MB-231 [33] = test: Potency index, ratio of 5-fluorouracil IC50 to test compound IC50 for antiproliferative activity against human MDA-MB-231 cells; format: functional
MDA-MB-468 [34] = test: Potency index, ratio of 5-fluorouracil IC50 to test compound IC50 for antiproliferative activity against human MDA-MB-468 cells; format: functional
MDA-MB-468 [35] = test: Antiproliferative activity against human MDA-MB-468 cells assessed as reduction in cell viability after 72 hrs by MTT assay; format: functional, cell-based; conditions: MDA-MB-468, 72 h
MCF7 [36] = test: Antiproliferative activity against human MCF7 cells assessed as reduction in cell viability after 72 hrs by MTT assay; format: functional, cell-based; conditions: MCF7, 72 h

Compound: Cc1cc(=O)oc2cc(OCc3cn(-c4ccc(S(N)(=O)=O)cc4)nn3)ccc12
IC50 (MGC-803 [1]): 0.4 to 3.5 µg/mL (≈ 0.97 to 8.49 µM)
IC50 (SGC-7901): 0.4 to 3.5 µg/mL (≈ 0.97 to 8.49 µM)
IC50 (Tubulin): 2.4 µM
inhibition in vivo at 60 mg/kg (MGC-803 [2]): 64.2%
IC50 (BGC-823): 0.4 to 3.5 µg/mL (≈ 0.97 to 8.49 µM)

Compound: COc1cc([C@@H]2c3cc4c(cc3[C@H](NC(=O)c3cn(-c5ccc(Cl)cc5)nn3)[C@H]3COC(=O)[C@H]23)OCO4)cc(OC)c1OC
Ratio IC50 (HeLa [3]): 3.8 - 8.5
Ratio IC50 (MCF7 [4]): 3.8 - 8.5
IC50 (MCF7 [5]): 0.7 to 1.21 µM
Ratio IC50 (DU-145 [6]): 3.8 - 8.5
IC50 (A549 [7]): 0.7 to 1.21 µM
Ratio IC50 (A549 [8]): 3.8 - 8.5
Ratio IC50 (HepG2 [9]): 3.8 - 8.5
IC50 (DU-145 [10]): 0.7 to 1.21 µM
IC50 (NIH3T3): 0.7 to 1.21 µM
IC50 (HepG2 [11]): 0.7 to 1.21 µM
IC50 (HeLa [12]): 0.7 to 1.21 µM

Compound: COC(=O)c1ccc(-c2cn(CC(=O)O[C@H]3c4cc5c(cc4[C@@H](c4cc(OC)c(OC)c(OC)c4)[C@H]4C(=O)OC[C@@H]43)OCO5)nn2)cc1
IC50 (U-251): 19.6 to 55.3 µM
IC50 (MCF7 [5]): 21.1 to 124 µM
IC50 (LNCaP): 19.6 to 55.3 µM
IC50 (K562): 19.6 to 55.3 µM
IC50 [13]: 19.6 to 55.3 µM
IC50 (HFF): 195 µM
IC50 (A549 [7]): 21.1 to 124 µM
IC50 (HCT-116): 19.6 to 55.3 µM
IC50 (SK-BR-3): 19.6 to 55.3 µM
IC50 (K562/Adr): 19.6 to 55.3 µM
IC50 (PC-3): 21.1 to 124 µM
IC50 (L02): 565 µM

Compound: CCCC(=O)OC[C@H]1O[C@@H](OC(COCc2cn([C@H]3c4cc5c(cc4[C@@H](c4cc(OC)c(OC)c(OC)c4)[C@H]4C(=O)OC[C@@H]43)OCO5)nn2)COCc2cn([C@H]3c4cc5c(cc4[C@@H](c4cc(OC)c(OC)c(OC)c4)[C@H]4C(=O)OC[C@@H]43)OCO5)nn2)[C@H](OC(=O)CCC)[C@@H](OC(=O)CCC)[C@@H]1OC(=O)CCC (some centres undefined)
Ratio IC50 (SW480 [20]): 2.8 - 21.3
Ratio IC50 (MCF7 [21]): 2.8 - 21.3
IC50 (SW480 [22]): 0.43 to 3.5 µM
Ratio IC50 (SW480 [23]): 2.8 - 21.3
Ratio IC50 [24]: 2.8 - 21.3
IC50 (HL-60): 0.43 to 3.5 µM
Ratio IC50 [25]: 2.8 - 21.3
Ratio IC50 (MCF7 [26]): 2.8 - 21.3
Ratio IC50 (A549 [27]): 2.8 - 21.3
IC50 (A549 [28]): 0.43 to 3.5 µM
Ratio IC50 (A549 [29]): 2.8 - 21.3
IC50 [30]: 0.43 to 3.5 µM

Continued, in another order:

IC50 (HepG2 [15]): 0.18 to 9.92 µM
IC50 (MCF7 [16]): 0.18 to 9.92 µM
IC50 (SK-OV-3): 0.18 to 9.92 µM
IC50 (A549 [17]): 0.18 to 9.92 µM
IC50 (HeLa [18]): 0.18 to 9.92 µM
IC50 (MCF7-DOX): 0.18 to 9.92 µM
IC50 (DU-145 [19]): 0.18 to 9.92 µM
Compound: CO/N=C1\C(=O)N(CCOCCn2cc(CN3C(=O)/C(=N\OC)c4ccccc43)nn2)c2ccccc21
Ratio IC50 (HepG2 [14]): 1.55

IC50 (MDA-MB-231 [31]): 0.8 to 1.7 µM
IC50 (MDA-MB-468 [35]): 0.8 to 1.7 µM
IC50 (MCF7 [36]): 0.8 to 1.7 µM
Compound: COc1cc(Cn2cc(CN3c4ccccc4Sc4ccccc43)nn2)cc(OC)c1OC
Ratio IC50 (MCF7 [32]): 6.2 - 15.8
Ratio IC50 (MDA-MB-231 [33]): 6.2 - 15.8
Ratio IC50 (MDA-MB-468 [34]): 6.2 - 15.8

— ChEMBL document CHEMBL4342418, “1,2,3-Triazole-containing hybrids as potential anticancer agents: Current developments, action mechanisms and structure-activity relationships” (Eur J Med Chem, 2019)
